In paper PMC12707362, “Targeting Aurora Kinases as Essential Cell‐Cycle Regulators to Deliver Multi‐Stage Antimalarials Against Plasmodium Falciparum” (Angewandte Chemie (International Ed. in English), 2025):
Values after ≈ are worked out from the molar mass of the structure shown.

What was measured:
recombinant PfArk3 = assay: KinaseSeeker three-hybrid split-luciferase competitive binding assay, PfArk3; set-up: species or system Plasmodium falciparum; settings: single point 1 µM
Method: (§2) Supplementary Figure S3: (A) Single-point activity profile of selected inhibitors at 1 µM against recombinant PfArk-1 and PfArk-3 proteins, utilising a three-hybrid split-luciferase competitive binding assay (KinaseSeeker™).

recombinant PfArk1 = recombinant PfArk1 (Plasmodium falciparum, UniProt C6KSQ1); assay: KinaseSeeker three-hybrid split-luciferase competitive binding assay, PfArk1
Method: as §2

eLogD = format: physicochemical
From the text: (§1) In vitro ADME analysis for logD, kinetic solubility (PBS, pH 7.4), human liver microsome clearance and t1/2, rat hepatocyte clearance and t1/2, and protein binding in Albumax media (simulating the malaria parasite culture media) was all performed as per standard assays by TCG LifeSciences.

Kinetic solubility = format: physicochemical; settings: aqueous buffer, kinetic from dmso stock; PBS, pH 7.4; read-out: Kin sol pH 7.4
From the text: as §1

[1] = Human liver microsome clearance; format: in vitro ADME; settings: human liver microsomes; for microsomal CLint: read-out: HL microsome CLint; for half-life: read-out: HL microsome t1/2
From the text: as §1

Rat hepatocyte clearance = format: in vitro ADME; settings: rat hepatocytes; for half-life: read-out: Rat hepatocyte t1/2
From the text: as §1

[2] = test system: hepatocellular carcinoma (HepG2) cells; assay: Cytotoxicity counter-screening (MTT), HepG2; settings: read-out: HepG2 CC50; 48 h, MTT
Method: HepG2 and CHO cells were maintained at 37 °C, under a humidified atmosphere of 5% CO2, in DMEM high glucose media (Gibco) supplemented with 10% heat-inactivated FBS and 1% (v/v) Penicillin-Streptomycin antibiotics. […] The supernatant was discarded, and the cell pellet was resuspended in 1 mL DMEM media for cell counting by Trypan Blue. To determine the toxicity, cells were resuspended and seeded at a concentration of 1x10^4 cells/well in a 96-well plate and incubated for 24 h^[9,10]. Cells were treated in duplicate with a 10-fold serial dilution starting at 100 ug/mL of inhibitor in new media. After 48 h incubation, the viable cells were measured using the MTT tetrazolium reduction assay, where sterile 25 µL of a 5 mg/mL MTT was added to each well and incubated for 4 h before the […] formazan crystals were dissolved with 100 µL DMSO (Merck) per well. The absorbance, a measure of intracellular reduction of MTT, was measured at 540 nm (Multiskan GO). Emetine (50 µM) was included as a positive drug control, and the background was subtracted from all data before being normalised to the untreated^[9,10].

[3] = test system: intracellular hemozoin formation in P. falciparum; assay: Cellular heme fractionation assay; format: cell-based, Plasmodium falciparum; settings: intracellular fractions
Method: The assay set-up followed that described in^[30,32] optimised to a multi-well colourimetric assay for determining heme species in P. falciparum. Briefly, P. falciparum ring-staged parasites were incubated at 2xIC50 value of the test inhibitor for 24 hours. Thereafter, the incubated parasites (trophozoites) were harvested and isolated through various steps of a cellular fractionation process. The cellular fractionations allow for direct quantification of the three major heme species in the trophozoites, namely hemoglobin, free heme, and hemozoin. These heme species can be determined spectroscopically using the aqueous pyridine-ferrochrome method. This method is based on the principle that aqueous pyridine forms a low-spin complex with heme but not hemozoin, and since the absorbance obeys Beer’s law, it allows for the quantification of heme concentration in solution. The various heme fractions were recovered and measured as follows, after the P. falciparum trophozoite cells were harvested following exposure to probe inhibitors:
Water (100 µL) was added to lyse the cells, and the suspension was sonicated for 5 min. This was followed by the addition of 50 µL 0.2M HEPES buffer pH 7.5, and then centrifugation at 3600 rpm for 20 min. The resulting supernatant (containing hemoglobin) was then transferred into an adjacent set of wells on the same plate. To which 50 µL of each of 4% SDS, 0.3 M NaCl and 25% pyridine were added, respectively. Thereafter, 200 µL of the resulting solution ([…]) was transferred to a set of wells on a separate 96-well plate for UV-vis analysis^[32,33].
The pellet from the centrifugation step described above consists of heme and hemozoin. […] Then 50 µL each of HEPES 0.2 M pH 7.5, 0.3 M NaCl, and 25% pyridine were added, respectively. The mixture was centrifugated at 3600 rpm and the supernatant (250 µL) was transferred to adjacent wells on a separate 96-well plate. Thereafter, 150 µL of water was added and 200 µL of the mixture transferred to a set of wells on a separate plate for UV-vis analysis^[32,33].
To the remaining pellet, 50 µL each of water and 0.3 M NaOH were added, and the mixture was sonicated for 15 min. After 30 min of incubation at room temperature, 50 µL each of HEPES 0.2 M pH 7.5, 0.3 M HCl, and 25% pyridine were added, respectively. To the resulting mixture (250 µL), 150 µL of water was then added, and 200 µL of this was transferred to a set of wells on a separate 96-well plate for UV-vis analysis^[32,33].
Cell counts for the assay were performed using the flow cytometry method described in^[33]. Cell counting determines the number of trophozoites per sample and, therefore, allows for the quantification of the amount of heme found in each individual cell.

[4] = Protein binding in Albumax II media; format: in vitro ADME; settings: bovine
Plasmodium kinases = assay: Kinobead competitive inhibition; format: binding; settings: 10 µM, log2 fold change below -1 versus vehicle
[5] = test system: asexual intra-erythrocytic parasites; assay: Fixed-ratio isobologram analysis; settings: additivity/indifference 0.8–1.4, antagonism >1.4
Method: Isobolograms were generated by plotting paired FIC values linearly, utilizing the average of three biological replicates, each performed in technical duplicates. The paired FIC values for each drug combination were analyzed, and the mean FIC values (ΣFIC) were calculated to delineate synergism (<0.8), additivity/indifference (0.8–1.4), or antagonism (>1.4).

Chain of recombinant PfArk1 (C6KSQ1 entry or part of it): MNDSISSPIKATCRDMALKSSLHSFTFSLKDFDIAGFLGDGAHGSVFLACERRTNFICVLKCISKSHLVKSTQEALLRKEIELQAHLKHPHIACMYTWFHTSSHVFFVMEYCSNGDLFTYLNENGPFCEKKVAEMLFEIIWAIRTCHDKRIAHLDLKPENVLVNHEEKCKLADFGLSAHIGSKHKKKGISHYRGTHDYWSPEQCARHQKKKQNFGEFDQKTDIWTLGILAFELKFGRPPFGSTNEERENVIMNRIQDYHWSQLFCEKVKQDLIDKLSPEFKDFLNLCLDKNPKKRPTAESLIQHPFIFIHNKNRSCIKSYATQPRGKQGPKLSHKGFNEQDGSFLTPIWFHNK

Structure (SMILES)	eLogD pH 7.4 (eLogD)	solubility kinetic (Kinetic solubility)	microsomal CLint [1]	half-life [1]	Rat hepatocyte CLint (Rat hepatocyte clearance)	half-life (Rat hepatocyte clearance)	CC50 [2]	free heme level [3]	hemozoin level [3]	ΣFIC50 in combination with CQ [5]	other results
CCN1CCN(C(=O)Cc2ccc(Nc3ncc(F)c(Nc4ccc(C(=O)Nc5ccccc5Cl)cc4)n3)cc2)CC1 [AAi I, Aurora A Inhibitor I]											inhibition of PfArk3 (recombinant PfArk3): 40%
O=C(Nc1c[nH]nc1-c1nc2ccc(CN3CCOCC3)cc2[nH]1)NC1CC1 [AT83, AT9283]	2.2	22.2 µM (≈ 8.47 µg/mL)	3.5 µL/min/mg	6.58 h	12.6 µL min^−1/10e6 cells	0.917 h					inhibition of PfArk1 (recombinant PfArk1; single point 1 µM): 30%
CCN(CCO)CCCOc1ccc2c(Nc3cc(CC(=O)Nc4cccc(F)c4)n[nH]3)ncnc2c1 [AZD-1152, AZD-1152-HQPA]							25.9 µM				
COc1cc(N2CCC(N3CCN(C)CC3)CC2)ccc1Nc1ncc(Cl)c(Nc2ccccc2S(=O)(=O)C(C)C)n1 [TAE684, NVP-TAE684]	3.4	198 µM (≈ 122 µg/mL)	25.4 µL/min/mg	0.917 h	3.5 µL min^−1/10e6 cells	3.28 h		significant increase in free heme	decrease in hemozoin formation	1.3	IC50 (recombinant PfArk1): 0.146 ± 0.02 µM; fraction unbound [4]: 0.2; Plasmodium kinases competed from Kinobeads (Plasmodium kinases): three Plasmodium kinases were competed from Kinobeads; ΣFIC50 in combination with ML10 [5]: 1.3
COc1cc2c(Nc3ccc(NC(=O)c4ccccc4)cc3)ncnc2cc1OCCCN1CCOCC1 [ZM-39, ZM-447439]							26.5 µM	significant increase in free heme	decrease in hemozoin formation	1.4	
